Assay results from patent US6960591B2, “Propane-1,3-dione derivative” (Yamanouchi Pharmaceutical Co., Ltd., priority 2000, dated 2005).
Counter-ions that a name gives are not always drawn.

These molecules were tested against T1, human GnRH receptor (Homo sapiens, UniProt P30968) (assay: Test of in vitro GnRH receptor antagonism: 125I-D-Trp6-LHRH binding inhibition). Settings: inhibition of 0.1 nM 125I-D-Trp6-LHRH binding; membrane fractions of CHO cells expressing human GnRH receptor; 4° C. for 3 hours; read-out: IC50 value (concentration at which PMB equals 50%).
T1 construct: expressed in transfected cells; membrane fraction
T1 sequence (P30968 1-328): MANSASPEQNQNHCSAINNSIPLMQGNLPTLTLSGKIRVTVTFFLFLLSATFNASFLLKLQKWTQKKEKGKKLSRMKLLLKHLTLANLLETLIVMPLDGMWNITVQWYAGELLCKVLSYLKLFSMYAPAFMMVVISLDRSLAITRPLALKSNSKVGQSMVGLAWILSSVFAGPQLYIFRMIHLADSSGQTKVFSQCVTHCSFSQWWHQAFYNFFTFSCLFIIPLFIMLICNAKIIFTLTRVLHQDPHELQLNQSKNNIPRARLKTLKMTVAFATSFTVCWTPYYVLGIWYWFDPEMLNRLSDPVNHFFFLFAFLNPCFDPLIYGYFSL
Procedure: In the following, in vitro GnRH receptor antagonistic effect of the pharmaceutical drugs and compounds of the invention was evaluated by inhibition of binding of ^125I-D-Trp^6-LHRH to human GnRH receptor.
1. Test of In Vitro GnRH Receptor Antagonism
(1) Preparation of Human GnRH Receptor-Expressing CHO (Chinese Hamster Ovary) Cells
Expression of human […] was carried out in a similar manner to a common method for protein expression (Chapter 9 In: Current Protocols In Molecular Biology: ed. by F. M. Ausubel et al., Greene Publishing Associates and Wiley-Interscience, 9.0.1-9.9.6 (1987), S. S. Kaker et al., Biol. Biophys. Res. Commun. 189, 289-295 (1992), R. Grosse et al., Mol. Endocrinol. 11, 1305-1318 (1997)). CHO cells were cultured (medium: αMEM, 10% FCS, containing an antibiotic-antimycotic agent) with an expression vector which has human GnRH receptor gene (SEQ ID No.: 1) and a transfection reagent FuGENE6 (manufactured by Boehringer-Mannheim) for 24 hours for transfection, whereby the CHO cells stably expressing human GnRH receptor (SEQ ID No.: 2, S. S. Kaker et al., Biol. Biophys. Res. Commun, 189, 289-295 (1992)) were obtained. The expression of the aimed receptor was confirmed by PCR method.
(2) Preparation of CHO Cell Membrane Fraction Containing Human GnRH Receptor
The CHO cells expressing the human GnRH receptor (3×10^8 cells), prepared in the above (1), were suspended in phosphate buffered saline (PBS) and centrifuged for 3 minutes at 100×G. The pellet suspended in 100 ml of a homogenate buffer (10 mM NaHCO3, 5 mM EDTA (ethylenediaminetetraacetic acid), pH 7.5) was homogenized using a Polytron homogenizer. After the resulting homogenate was centrifuged for 15 minutes at 400×G, the supernatant was centrifuged for 1 hour at 100,000×G. The membrane fraction obtained as a pellet was suspended in 60 ml of storage buffer (25 mM Tris-HCl, 1 mM EDTA, 10 μg/ml a protease inhibitor (Pefabloc SC (manufactured by Merck)), 1 μg/ml pepstatin A, 20 μg/ml leupeptin, 0.03% sodium azide, pH 7.5), and stored at −80° C. until use. […]
The membrane fractions of CHO cells expressing the human GnRH receptor which were prepared in the above (2) were diluted with assay buffer (HBSS (Hanks balanced salt solution), 20 mM HEPES, 0.1% BSA (bovine serum albumin), 100 μg/ml bacitracin, pH 7.4) so as to be 20 μg/tube, and were dispensed into tubes in an amount of 148 μl. […] The filters were washed three times with 1 ml of assay buffer and the radioactivity on the filter was measured using a γ-counter. Binding inhibition (%) (PMB) of each test compound at various concentrations were determined according to the following equation: PMB=(SB−NSB)/(TB−NSB)×100 (wherein TB: total binding radioactivity, SB: radioactivity when a test compound was added, NSB: non-specific binding radioactivity). […]

Structure (SMILES) | IC50
Nc1cccc(C(=O)C(C(=O)c2cc(F)cc(F)c2)=C2Nc3ccccc3N2)c1 [Example 40, 1-(3-aminophenyl)-3-(3,5-difluorophenyl)-2-(1,3-dihydro-2H-benzimidazol-2-ylidene)propane-1,3-dione hydrochloride] | 0.1 to 1 nM
O=C(C(C(=O)c1cccc(CNCCc2ccncc2)c1)=C1Nc2ccccc2N1)c1ccccc1 [Example 79, 2-(1,3-dihydro-2H-benzimidazol-2-ylidene)-1-phenyl-3-(3-{[(2-pyridin-4-ylethyl)amino]methyl}phenyl)propane-1,3-dione hydrochloride] | 0.1 to 1 nM
O=C(C(C(=O)c1cccc(NCc2c[nH]cn2)c1)=C1Nc2ccccc2N1)c1cc(F)cc(F)c1 [Example 83, 1-(3,5-difluorophenyl)-2-(1,3-dihydro-2H-benzimidazol-2-ylidene)-3-{3-[(1H-imidazol-4-ylmethyl)amino]phenyl}propane-1,3-dione hydrochloride] | 0.1 to 1 nM
O=C(C(C(=O)c1cc(F)cc(F)c1)=C1Nc2ccc(OCc3cccnc3)cc2N1)c1ccccc1 [Example 402, 1-(3,5-difluorophenyl)-2-[5-(pyridin-3-ylmethoxy)-1,3-dihydro-2H-benzimidazol-2-ylidene]-3-phenylpropane-1,3-dione oxalate] | 0.1 to 1 nM
